# Results reported in patent US20240041042A1, “1-(PYRIDYL)-5-AZINYLPYRAZOLE DERIVATIVES, AND THEIR USE FOR CONTROL OF UNDESIRED PLANT GROWTH” (Bayer Aktiengesellschaft, priority 2020, published 2024).
# Where two headings read alike, the source gives them in different places.
# What was measured:
# Type in all cases: in vivo
# [1] = system: Abutilon theophrasti (ABUTH); assay: Pre-emergence herbicidal action against ABUTH; settings: Dosage column 320 g/ha (title prints 3200 g/ha); scored visually after about 3 weeks; 100% = plants have died
# From the text: Seeds of monocotyledonous and dicotyledonous weed plants and crop plants are placed in plastic or organic planting pots and covered with soil. The compounds of the invention, formulated in the form of wettable powders (WP) or as emulsion concentrates (EC), are then applied to the surface of the covering soil as aqueous suspension or emulsion with addition of 0.5% additive at a water application rate equivalent to 600 l/ha. After the treatment, the pots are placed in a greenhouse and kept under good growth conditions for the trial plants. After about 3 weeks, the effect of the preparations is scored visually in comparison with untreated controls as percentages. For example, 100% activity=the plants have died, 0% activity=like control plants.
# Tables A1 to A13 below show the effects of selected compounds of the general formula (I) on various harmful plants and at an application rate corresponding to 320 g/ha or lower, which were obtained by the experimental procedure mentioned above. The appendices “a”, “b” and “c” give differentiation by dosage used with otherwise the same harmful plants tested.
# [2] = system: Verconica persica (VERPE); assay: Post-emergence herbicidal action against VERPE
# Method in brief: (§1)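 Values are percent visual activity (0% like control, 100% plants dead) after about 3 weeks in the greenhouse. Treatment: post-emergence spray at one-leaf stage, 600 l/ha spray volume, 0.5% additive, doses 320 g/ha or lower.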
# [3] = system: Alopecurus myosuroides (ALOMY); assay: Post-emergence herbicidal action against ALOMY; settings: visual rating about 3 weeks after treatment vs untreated controls (100% = plants have died, 0% = like control plants)
# Method in brief: as §1
# [4] = system: Zea mays (ZEAMX)
# Method in brief: (§2)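 Test crops were treated 2 to 3 weeks after sowing, once they reached one leaf, by spraying compound in water with 0.5% additive at 600 l/ha. Visual scoring compared them with untreated controls roughly 3 weeks on, and appendices a, b and c denote different doses.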
# [5] = system: Oryza sativa (ORYSA); settings: crop plant compatibility
# Method in brief: as §2
# [6] = system: Setaria viridis (SETVI); assay: Post-emergence herbicidal action against SETVI
# Method in brief: as §1
# [7] = system: Alopecurus myosuroides (ALOMY); assay: Pre-emergence herbicidal action against ALOMY; settings: scored visually after about 3 weeks, 100% = plants have died
# Method in brief: (§3)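 Greenhouse pot trial: seeds sown, soil-covered, sprayed before emergence with compound in water (0.5% additive; 600 l/ha; ≤320 g/ha). Scoring visual, ~3 weeks, 0–100% scale vs untreated.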
# [8] = system: Avena fatua (AVEFA); assay: Post-emergence herbicidal action against AVEFA; settings: visual rating about 3 weeks after treatment
# Method in brief: as §1
# [9] = system: Setaria viridis (SETVI); assay: Pre-emergence herbicidal action against SETVI; settings: dosage 320 g/ha
# Method in brief: as §3
# [10] = system: Avena fatua (AVEFA); assay: Pre-emergence herbicidal action against AVEFA; settings: visual scoring after about 3 weeks vs untreated controls
# Method in brief: as §3
# [11] = system: Echinochloa crus-galli (ECHCG); assay: Pre-emergence herbicidal action against ECHCG; settings: dosage 320 g/ha
# Method in brief: as §3
# [12] = system: Lolium rigidum (LOLRI); assay: Post-emergence herbicidal action against LOLRI
# Method in brief: as §1
# [13] = system: Viola tricolor (VIOTR); assay: Pre-emergence herbicidal action against VIOTR
# Method in brief: as §3
# [14] = system: Matricaria inodora (MATIN); assay: Pre-emergence herbicidal action against MATIN; settings: dosage 320 g/ha
# Method in brief: as §3
# [15] = system: Verconica persica (VERPE); assay: Pre-emergence herbicidal action against VERPE
# Method in brief: as §3
# [16] = system: Polygonum convolvulus (POLCO); assay: Pre-emergence herbicidal action against POLCO
# Method in brief: as §3
# [17] = system: Amaranthus retroflexus (AMARE); assay: Pre-emergence herbicidal action against AMARE; settings: visual scoring after about 3 weeks vs untreated controls
# Method in brief: as §3
# [18] = system: Pharbitis purpurea (PHBPU); assay: Pre-emergence herbicidal action against PHBPU; settings: dosage 320 g/ha
# Method in brief: as §3
# [19] = system: Lolium rigidum (LOLRI); assay: Pre-emergence herbicidal action against LOLRI
# Method in brief: as §3
# [20] = system: Echinochloa crus-galli (ECHCG); assay: Post-emergence herbicidal action against ECHCG; settings: dosage 320 g/ha
# Method in brief: as §1
# [21] = system: Pharbitis purpurea (PHBPU); assay: Post-emergence herbicidal action against PHBPU
# Method in brief: as §1
# [22] = system: Amaranthus retroflexus (AMARE); assay: Post-emergence herbicidal action against AMARE
# Method in brief: as §1
# [23] = system: Polygonum convolvulus (POLCO); assay: Post-emergence herbicidal action against POLCO; settings: dosage 320 g/ha
# Method in brief: as §1
# [24] = system: Viola tricolor (VIOTR); assay: Post-emergence herbicidal action against VIOTR
# Method in brief: as §1
SMILES,Pre-emergence action against ABUTH [1],Post-emergence action against ALOMY in % ([3]; 80 g/ha),Pre-emergence action against ALOMY ([7]; 80 g/ha),Pre-emergence action against ALOMY ([7]; 320 g/ha),Post-emergence action against AVEFA in % ([8]; 80 g/ha),Pre-emergence action against SETVI in % [9],Pre-emergence action against AVEFA in % ([10]; 80 g/ha),Pre-emergence action against AVEFA in % ([10]; 320 g/ha),Pre-emergence action against ECHCG in % [11],Post-emergence action against LOLRI in % ([12]; dosage 80 g/ha),"Pre-emergence action against VIOTR in % ([13]; 320 g/ha, Viola tricolor)",Pre-emergence action against VIOTR in % ([13]; dosage 80 g/ha),Pre-emergence action against MATIN in % [14],Pre-emergence action against VERPE in % ([15]; dosage 320 g/ha),Pre-emergence action against POLCO in % ([16]; dosage 320 g/ha),Pre-emergence action against AMARE in % ([17]; 80 g/ha),Pre-emergence action against AMARE in % ([17]; 320 g/ha),Pre-emergence action against PHBPU in % [18],Pre-emergence action against LOLRI in % ([19]; dosage 80 g/ha),Pre-emergence action against LOLRI in % ([19]; dosage 320 g/ha),other results
C[C@@H](Oc1nn(-c2ncccc2F)c(-c2ccc(F)nc2)c1Br)C(=O)OCc1ccccn1 [Example I-52],80%,90%,90%,100%,90%,100%,90%,100%,100%,80%,100%,100%,90%,100%,90%,80%,100%,90%,90%,100%,"Post-emergence action against VERPE in % ([2]; dosage 80 g/ha): 90%; Post-emergence action against ZEAMX in % (crop plant compatibility) ([4]; 20 g/ha, ZEAMX, effect in comparison to untreated controls): 0%; Post-emergence action against ZEAMX in % ([4]; crop plant compatibility, 80 g/ha, effect vs untreated controls): 10%; Post-emergence action against ORYSA in % ([5]; 20 g/ha, effect vs untreated controls): 0%; Post-emergence action against ORYSA in % ([5]; 80 g/ha, effect in comparison to untreated controls): 10%; Post-emergence action against SETVI in % ([6]; dosage 80 g/ha): 80%; Pre-emergence action against VERPE in % ([15]; dosage 80 g/ha): 80%"
C[C@@H](Oc1nn(-c2ccccn2)c(-c2cncnc2)c1Cl)C(=O)O [Example I-20],90%,100%,90%,100%,90%,100%,90%,100%,100%,90%,100%,100%,100%,100%,100%,100%,100%,90%,100%,100%,"Post-emergence action against ECHCG in % [20]: 80%; Post-emergence action against VERPE in % ([2]; 320 g/ha, VERPE): 80%; Post-emergence action against ALOMY in % ([3]; 320 g/ha): 100%; Post-emergence action against PHBPU in % ([21]; dosage 80 g/ha): 90%; Post-emergence action against PHBPU in % ([21]; dosage 320 g/ha): 90%; Post-emergence action against SETVI in % ([6]; dosage 320 g/ha): 90%; Post-emergence action against AMARE in % ([22]; 80 g/ha, visual rating about 3 weeks after treatment vs untreated controls (100% = plants have died, 0% = like control plants)): 90%; Post-emergence action against AMARE in % ([22]; 320 g/ha, visual rating about 3 weeks after treatment): 90%; Post-emergence action against AVEFA in % ([8]; 320 g/ha): 90%; Post-emergence action against POLCO in % [23]: 80%; Post-emergence action against LOLRI in % ([12]; dosage 320 g/ha): 90%; Post-emergence action against VIOTR in % ([24]; 80 g/ha): 90%; Post-emergence action against VIOTR in % ([24]; 320 g/ha): 90%; Pre-emergence action against POLCO in % ([16]; dosage 80 g/ha): 90%"
